# Test results reported in patent US20090215755A1, “USE OF A PYRAZOLE DERIVATIVE FOR PREPARING MEDICINAL PRODUCTS THAT ARE USEFUL IN THE PREVENTION AND TREATMENT OF DYSLIPIDAEMIAS AND OF DISEASES RELATED TO DYSLIPIDAEMIAS AND/OR TO OBESITY” (SANOFI-AVENTIS, priority 2003, published 2009).
# Marks after values point to notes of the source that are not given here.
# Columns and labels:
# obese patients [1] = details: clinical studies, Le Fur 2003; Heshmati et al. 2001; cited from earlier work
# [2] = system: obese individuals with dyslipidaemias; experiment: Rio Lipids clinical study, 12 months, obese individuals with dyslipidaemias; format: in vivo, human
# Description: The Rio Lipids clinical study, carried out for 12 months in 1036 obese individuals with dyslipidaemias, compares the effect of rimonabant at a dose of 20 mg, versus a placebo product, in weight reduction, improvement in the lipid parameters and prevalence of metabolic syndrome. The treated group and the placebo group are subjected to a low-calorie diet.
# obese patients [3] = experiment: Clinical trial of rimonabant on the lipid parameters, 4 weeks of treatment, obese patients; format: in vivo, human; details: for Improvement in metabolic syndrome / Weight loss / Decrease in triglycerides ≧10% / Increase in HDLc ≧10% / Blood glucose level: obese patients; for Improvement in metabolic syndrome: ATP III definition; for Weight loss: low-calorie diet; for Decrease in triglycerides ≧10% / Increase in HDLc ≧10%: share of patients; for Blood glucose level: signed values (change)
# Description: A clinical trial was carried out for 4 weeks on 287 obese patients whose body mass index (BMI) was between 30 and 40. After having received the placebo for 2 weeks, the patients were randomized so as to receive doses of 5, 10 or 20 mg/day of rimonabant or the placebo.
# There was a check-up visit 4 weeks after the end of the treatment.
# For the duration of the study, the patients were asked to follow a low-calorie diet (deficit of 500 kcal/day).
# obese mice = experiment: Action of rimonabant on blood lipid levels in obese mice (2 months of treatment); format: in vivo; details: rimonabant 10 mg/kg/day oral
# Description: The effect of a long-term (2 months) treatment with rimonabant was studied in mice having an established obesity.
# The study was carried out in mice receiving either a normal diet or a fatty diet. Obesity developed in the mice receiving a fatty diet and it became stabilized after 5 months. The mice were then divided up into 3 groups:
# group 1: maintenance of the fatty diet and oral treatment for 2 months with rimonabant at 10 mg/kg/day, in water with 0.1% of Tween 80 (vehicle);
# group 2: maintenance of the fatty diet and administration of the vehicle (water+0.1% of Tween 80);
# group 3: return to a normal diet and administration of the vehicle (water+0.1% of Tween 80);
# group 4 consists of mice receiving a normal diet and the vehicle from the start.
# obese fa/fa Zucker rats = experiment: Effect of rimonabant on steatosis and steatohepatitis in obese rats; format: in vivo; details: rimonabant 30 mg/kg/day oral, 2 months
# Description: The effect of rimonabant on steatosis and steatohepatitis was studied in obese fa/fa Zucker rats.
# For this study, 3 groups are formed: • thin rats/vehicle group: thin Zucker rats treated with the vehicle (water and 0.1% Tween 80); • obese rats/vehicle group: obese fa/fa Zucker rats treated with the vehicle (water and 0.1% Tween 80); • obese rats/rimonabant group: obese fa/fa Zucker rats treated orally for 2 months with rimonabant at 30 mg/kg/day, in the vehicle (water and 0.1% Tween 80).
# After 2 months of treatment, the body weight and the weight of the liver are measured for each rat, and a histopathological analysis of the fat load in the livers is carried out.
# [4] = rimonabant groups 5, 10, 20 mg/day taken together
# [5] = group 1: obese mice kept on fatty diet
# [6] = group 1: obese mice, fatty diet
structure (smiles),measurement,setting,value
"Cc1c(C(=O)NN2CCCCC2)nn(-c2ccc(Cl)cc2Cl)c1-c1ccc(Cl)cc1 [rimonabant, N-piperidino-5-(4-chlorophenyl)-1-(2,4-dichlorophenyl)-4-methylpyrazole-3-carboxamide]",body weight of obese patients,obese patients [1],reduces the body weight of obese patients
same,food intake,obese patients [1],acts on food intake from a quantitative and qualitative point of view
same,"adiponectin, starting level","[2]; rimonabant 20 mg group, before the year of treatment",5.8 ± 2.7 µg/mL
same,adiponectin at the end of the year of treatment,"[2]; rimonabant 20 mg, 12 months",8.2 ± 4.2 µg/mL
same,increase in the HDLc level exceeding that of the placebo group,"[2]; rimonabant 20 mg, 12 months, low-calorie diet",11.3±1.7%
same,decrease in the triglyceride level exceeding that of the placebo group,"[2]; rimonabant 20 mg, 12 months, low-calorie diet, p<0.001",12.2±3.7
same,weight loss greater than that observed in the placebo group,"[2]; rimonabant 20 mg, 12 months, low-calorie diet, p≦0.001",6.3 ± 0.5 kg
same,patients who stopped showing the metabolic syndrome characteristics,"[2]; rimonabant 20 mg, 12 months, p<0.001 vs placebo",60.2%
same,Improvement in metabolic syndrome,obese patients [3]; 5 mg/d rimonabant,42%
same,Weight loss,obese patients [3]; 5 mg/d rimonabant,3.4 * kg
same,Decrease in triglycerides ≧10%,obese patients [3]; 5 mg/d rimonabant,36%
same,Increase in HDLc ≧10%,obese patients [3]; 5 mg/d rimonabant,43%
same,Blood glucose level,obese patients [3]; 5 mg/d rimonabant,−0.09 ** mmol/1
same,Improvement in metabolic syndrome,obese patients [3]; 10 mg/d rimonabant,39%
same,Weight loss,obese patients [3]; 10 mg/d rimonabant,3.7 * kg
same,Decrease in triglycerides ≧10%,obese patients [3]; 10 mg/d rimonabant,34%
same,Increase in HDLc ≧10%,obese patients [3]; 10 mg/d rimonabant,45%
same,Blood glucose level,obese patients [3]; 10 mg/d rimonabant,−0.02 *** mmol/1
same,Improvement in metabolic syndrome,obese patients [3]; 20 mg/d rimonabant,21%
same,Weight loss,obese patients [3]; 20 mg/d rimonabant,4.5 * kg
same,Decrease in triglycerides ≧10%,obese patients [3]; 20 mg/d rimonabant,51%
same,Increase in HDLc ≧10%,obese patients [3]; 20 mg/d rimonabant,44%
same,Blood glucose level,obese patients [3]; 20 mg/d rimonabant,+0.03 mmol/1
same,blood glucose level (overall statement),obese patients [3]; [4],remains stable or decreases discretely
same,metabolic syndrome as defined by ATP III (overall statement),obese patients [3]; [4],tendency for the metabolic syndrome to improve
same,triglycerides (overall statement),obese patients [3]; [4],tendency for the triglycerides to decrease
same,HDLc/total cholesterol,obese mice; [5],62.2 ± 0.5 %
same,LDLc/total cholesterol,obese mice; [5],5.5 ± 0.3 %
same,glucose blood level,obese mice; [6],decrease
same,insulin blood level,obese mice; [6],decrease
same,leptin blood level,obese mice; [6],decrease
same,Liver weight/body weight ratio,obese fa/fa Zucker rats,3.86 ± 0.07 %
same,decrease of the increase in the liver weight/body weight ratio seen in obese/vehicle rats,obese fa/fa Zucker rats,80%
same,fat overload in the liver (histopathological analysis),obese fa/fa Zucker rats,disappearance of this fat overload
